Data: PMC10816276 (International Journal of Molecular Sciences, 2024)
Values after ≈ are worked out from the molar mass of the structure shown. Values joined by “and” are separate entries in the source; they are usually repeats but may differ in a detail not shown here. Identical values can stand only once. Like-named read-outs stand apart in the source and are kept apart here.

Experiments:
[1] = test system: Human melanoma A375 tumor cells; experiment: CCK-8 cell proliferation and cytotoxicity assay, A375; assay type: cell-based
Protocol: (§1) I. Cell lines and cell culture. Human melanoma A375 tumor cells and human immortalized keratinocyte (HaCaT) non-tumor cells were obtained from Nanjing Pusheng Biomedical Technology Co., Ltd. (Nanjing, China). The cells (A375/HaCaT) were cultured in Dulbecco’s modified Eagle’s medium (DMEM, Gibco, New York, NY, USA) supplemented with 10% (v/v) fetal bovine serum (FBS, Gibco, New York, NY, USA), and incubated at 37 °C with 5% CO2 in a humidified incubator.
(§2) II. Cell viability assay. Cell proliferation and cytotoxicity assays were conducted using the Cell counting kit-8 (CCK-8) on A375 and HaCaT cells. Briefly, the cells were initially seeded in 96-well plates at a density of 4 × 10^4 cells per well and incubated for 24 h at 37 °C with 5% CO2 in a humidified incubator. Each treatment was performed in six duplicate wells. The tested compounds were added at various concentrations, and the cells were then incubated for 72 h. Following the incubation period, CCK-8 solution (Dojindo Laboratories, Kumamoto, Japan) was added to each well, and the plates were further incubated for 2 h. The absorbance of each well at 450 nm was measured using an absorbance microplate reader (BioTek ELx800, Winooski, VT, USA). The assay included negative controls in which cells were treated with ultrapure water and positive controls in which cells were treated with 10 µg·mL^−1 taxol. The percentage of cell growth inhibition was calculated using the following Equation (3). (3) Cell growth inhibition rate [%]=B1−B2/B1−B3×100 where B1 represents the absorbance of a mixture containing cells, medium, and CCK-8 solution, B2 represents the absorbance of a mixture containing cells, medium, CCK-8 solution, and the test compound; and B3 represents a mixture containing medium and CCK-8 solution.

[2] = test system: human immortalized keratinocyte (HaCaT) non-tumor cells; experiment: CCK-8 cell proliferation and cytotoxicity assay, HaCaT; assay type: cell-based
Protocol: as §1, §2

ICR mice = experiment: Acute oral toxicity, 14 days; assay type: in vivo; details: for Death rate / Death toll (♀/♂): 20 mice; for Toxic Symptoms (♀/♂) Perianal Uncleanliness / Toxic Symptoms (♀/♂) Prone State / Toxic Symptoms (♀/♂) Reduced Activities / Toxic Symptoms (♀/♂) Shortness of Breath: n = 20 mice
Protocol: I. Animals. […] Male and female mice were raised separately in sterile PC transparent cages in the room with a 12 h light-dark cycle. The animal procedures followed the guidelines of the National Institute of Health Guide for the Care and Use of Laboratory Animals and were approved by the Institutional Animal Care and Use Committee (IACUC) of Yunnan Institute of Materia Medica.
II. Acute oral_toxicity. […] In this experiment, a 5% sodium carboxymethyl cellulose solution (5% CMC-Na) was chosen as the Vehicle and the solvent for 6′-O-caffeoylarbutin. […] Each mouse in the Vehicle group received an administration of 40 mL∙kg-1 of 5% CMC-Na. The treatment groups were orally administrated 6′-O-caffeoylarbutin twice within a 24_h period, with an interval of approximately 3.5–4.0 h, by dissolving in 5% CMC-Na at three different concentrations. Following administration, all animals in each group were closely monitored for about 2–5 h to observe any physical changes, monitor body weight, and record the death rate. The surviving mice were observed and monitored for an additional 14 days, with their body weight recorded on the 1st, 3rd, 7th, and 14th days. Animals that died during the experimental period or those that survived until the conclusion of the toxicity test were subjected to necropsy, and their organs were histopathologically observed and analyzed. All studies were conducted in accordance with the requirements of Good Laboratory Practice.

apple juice = experiment: Browning inhibitory effect on apple juice; design: species or system Zhaotong Red Fuji apples; details: absorbance at 420 nm, compared to apple juice blank control
Protocol: To investigate the anti-browning effect of 6′-O-caffeoylarbutin, apple juice was used following a modified method based on the literature. Zhaotong Red Fuji apples were carefully chosen to ensure uniform shape, color, size, and maturity, free from any physical damage. After peeling, the apples were sliced into 10 g portions. These apple pieces were then immersed in solutions containing different concentrations of 6′-O-caffeoylarbutin for 10 min, followed by homogenization. The homogenized samples were subsequently subjected to centrifugation at 8000 rpm for 5 min at 4 °C, and the resulting supernatant (3 mL) was collected. Simultaneously, a blank control was prepared by extracting apple juice without the addition of any anti-browning agent. The absorbance of the samples at 420 nm was measured using a UV_vis spectrophotometer.

[3] = biological target: T1, Mushroom tyrosinase (mTyr) (Agaricus bisporus, UniProt C7FF04); details: substrate L-tyrosine; previous experiments; Liu et al., 2023; read-out: IC50, monophenolase activity of mTyr; cited from earlier work
T1 construct: purchased Sigma-Aldrich
T1 sequence (C7FF04 1-392): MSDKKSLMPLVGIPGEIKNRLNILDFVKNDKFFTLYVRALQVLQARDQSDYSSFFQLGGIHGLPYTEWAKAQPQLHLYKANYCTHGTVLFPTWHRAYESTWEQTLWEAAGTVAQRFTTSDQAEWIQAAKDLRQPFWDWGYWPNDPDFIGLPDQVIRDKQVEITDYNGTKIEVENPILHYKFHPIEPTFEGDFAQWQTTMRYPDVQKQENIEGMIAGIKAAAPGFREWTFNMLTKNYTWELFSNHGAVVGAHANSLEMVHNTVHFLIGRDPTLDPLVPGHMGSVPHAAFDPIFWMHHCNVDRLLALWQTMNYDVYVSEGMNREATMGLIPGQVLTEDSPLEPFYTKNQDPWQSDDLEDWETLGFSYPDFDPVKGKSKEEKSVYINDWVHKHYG

[4] = biological target: T1, Mushroom tyrosinase (mTyr); details: substrate L-DOPA; previous experiments; Liu et al., 2023; read-out: IC50, diphenolase activity of mTyr; cited from earlier work

## O=C(C=Cc1ccc(O)c(O)c1)OCC1OC(Oc2ccc(O)cc2)C(O)C(O)C1O (stereo not drawn) [6′-O-caffeoylarbutin]
[1]; 3.125–100 μg∙mL^−1, 72 h
  inhibition rate: below 5%
[1]; Homo sapiens, A-375, 200 μg∙mL^−1, 72 h, read-out: inhibition rate
  inhibition at 200 µg/mL: 20%
[1]; Homo sapiens, A-375, 400 μg∙mL^−1, 72 h, read-out: inhibition rate
  inhibition at 400 µg/mL: 67.8%
[1]; Homo sapiens, A-375, 72 h, CCK-8
  IC50: 313 µg/mL (≈ 721 µM)
[2]; 3.125–100 μg∙mL^−1, 72 h
  inhibition rate: below 3%
[2]; Homo sapiens, 200 μg∙mL^−1, 72 h, read-out: inhibition rate
  inhibition at 200 µg/mL: 3.6%
[2]; Homo sapiens, 400 μg∙mL^−1, 72 h, read-out: inhibition rate
  inhibition at 400 µg/mL: 14.5%
[2]; Homo sapiens, 72 h, CCK-8
  IC50: > 400 µg/mL
ICR mice; CA-1, 28056 mg·kg-1 oral
  Death rate: 25%
  Death toll (♀/♂): 3/2
ICR mice; CA-1, 28,056 mg·kg^−1 oral
  Toxic Symptoms (♀/♂) Perianal Uncleanliness: 0
  Toxic Symptoms (♀/♂) Prone State: 2 (0/2)
  Toxic Symptoms (♀/♂) Reduced Activities: 8 (2/6)
  Toxic Symptoms (♀/♂) Shortness of Breath: 4 (2/2)
ICR mice; CA-1, Female mice
  Body weight gain: 2.22 ± 0.62 g
  body weight, 1st day after the delivery: 22.26±0.97
  body weight, 3rd day after the delivery: 24.28±1.18
  body weight, 7th day after the delivery: 24.88±1.09
  body weight, 14th day after the delivery: 27.10±1.39
ICR mice; CA-1, Male mice
  Body weight gain: 2.65 ± 1.01 g
  body weight, 1st day after the delivery: 30.75±2.11
  body weight, 3rd day after the delivery: 33.62±2.35
  body weight, 7th day after the delivery: 35.25±2.53
  body weight, 14th day after the delivery: 37.90±3.13
ICR mice; CA-2, 23848 mg·kg-1 oral
  Death rate: 5%
  Death toll (♀/♂): 0/1
ICR mice; CA-2, 23,848 mg·kg^−1 oral
  Toxic Symptoms (♀/♂) Perianal Uncleanliness: 0
  Toxic Symptoms (♀/♂) Prone State: 0
  Toxic Symptoms (♀/♂) Reduced Activities: 1 (0/1)
  Toxic Symptoms (♀/♂) Shortness of Breath: 0
ICR mice; CA-2, Female mice
  Body weight gain: 1.88 ± 1.17 g
  body weight, 1st day after the delivery: 21.58±1.21
  body weight, 7th day after the delivery: 23.59±0.50
  body weight, 14th day after the delivery: 25.47±1.36
ICR mice; CA-2, Male mice
  Body weight gain: 3.38 ± 1.23 g
  body weight, 1st day after the delivery: 30.91±0.87
  body weight, 3rd day after the delivery: 33.07±1.24
  body weight, 7th day after the delivery: 33.88±1.71
  body weight, 14th day after the delivery: 37.26±2.19
ICR mice; CA-3, 20272 mg·kg-1 oral
  Death toll (♀/♂): 0/0
ICR mice; CA-3, 20,272 mg·kg^−1 oral
  Toxic Symptoms (♀/♂) Perianal Uncleanliness: 0
  Toxic Symptoms (♀/♂) Prone State: 0
  Toxic Symptoms (♀/♂) Reduced Activities: 0
  Toxic Symptoms (♀/♂) Shortness of Breath: 0
ICR mice; CA-3, Female mice
  Body weight gain: 2.41 ± 1.51 g
  body weight, 1st day after the delivery: 22.21±0.87
  body weight, 3rd day after the delivery: 23.36±0.66
  body weight, 14th day after the delivery: 26.62±1.54
ICR mice; CA-3, Male mice
  Body weight gain: 1.45 ± 3.11 g
  body weight, 1st day after the delivery: 30.89±1.57
  body weight, 3rd day after the delivery: 33.88±1.41
  body weight, 7th day after the delivery: 35.33±1.44
  body weight, 14th day after the delivery: 36.78±3.53
ICR mice; mouse, in vivo
  deaths: no deaths
Apple juice
  formation of browning compounds in apple juice: significant reduction in the formation of browning compounds in a dose-dependent manner
[3]
  IC50: 1110 nM and 1100 nM
[4]
  IC50: 95.2 µM
